This is an account of results in ChEMBL document CHEMBL1201862, “PubChem BioAssay data set” (2004).

SMILES strings stand for the structures.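 Values below derive from 48-hour exposures of cells grown in 96-well plates, with endpoints linearly interpolated between the two concentrations bracketing the appropriate inhibition level. At the GI50, growth is halved.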 Activity calls are given as the source filed them. Rule as the data show it: active = GI50 up to about 1.1 µM and inactive = higher.

What all share (assay): NCI tumour cell line growth inhibition, 48 h
Test [1] deals with SK-MEL-2.
The test system of test [2] is HCC 2998.
Test [3] relates to HCT-116.
Test [4] deals with PC-3.
Test [5] has as its system UACC-257.
The subject of test [6] is SNB-19.
Test [7] relates to UACC-62.
Test [8] has as its system RXF 393.
Test [9] relates to IGROV-1.
Test [10] concerns HOP-62.
Test [11] relates to NCI-H460.
Test [12] has as its system U-251.
Test [13] relates to SW-620.
In test [14] the test system is MDA-MB-231.
Test [15] has as its system OVCAR-3.
Test [16] deals with EKVX.
Test [17] relates to SF-268.
The subject of test [18] is ACHN.
Test [19] relates to SK-MEL-28.

`Cc1ccc(S(=O)(=O)n2cc(C=O)c(-c3cn(S(=O)(=O)c4ccc(C)cc4)cc3-c3cn(S(=O)(=O)c4ccc(C)cc4)cc3C=O)c2)cc1`: the GI50 in test [1] is 33.8 µM (inactive); in test [2], > 100 µM (inactive); in test [3] it was 28 µM (inactive); in test [4], 27.5 µM (inactive); in [5] it was 54.1 µM (inactive); in [6], 50.2 µM (inactive). Also, the GI50 was 48.1 µM (inactive) in [7]; 29.5 µM (inactive) in test [8]; 53.8 µM (inactive) in test [9]; > 100 µM (inactive) in test [10]; 29.2 µM (inactive) in [11]; 29.6 µM (inactive) in [12]. In addition, the GI50 in test [13] is 45.1 µM (inactive); in test [14], > 100 µM (inactive); in test [15], 78.9 µM (inactive); in [16] it was 16.7 µM (inactive); in test [17] it was > 100 µM (inactive).

Consider `O=c1oc2ccc3ccccc3c2cc1-c1cn2c(n1)sc1ccccc12`, for which the GI50 in [1], in test [2], in test [3], in test [4], in test [5] and in test [6] was > 100 µM (inactive) in each case. The GI50 was 92.7 µM (inactive) in test [7]; > 100 µM (inactive) in test [8]; > 100 µM (inactive) in test [18]; > 100 µM (inactive) in test [9]; > 100 µM (inactive) in test [10]; > 100 µM (inactive) in test [19]. The GI50 was > 100 µM (inactive) in test [11]; > 100 µM (inactive) in [12]; > 100 µM (inactive) in test [13]; > 100 µM (inactive) in test [14]; > 100 µM (inactive) in test [15]; 90.8 µM (inactive) in [16]. In addition, in [17], the GI50 was > 100 µM (inactive).

With `O=C1OC(c2ccc([N+](=O)[O-])cc2)=N/C1=C\c1ccc(O)cc1`, the GI50 in test [1], in test [2], in test [3], in test [4], in [5] and in test [6] was > 100 µM (inactive) each time. The GI50 in [7], in [8], in [18], in test [9], in test [10] and in test [19] was > 100 µM (inactive) throughout. Moreover, the GI50 in [11], in [12], in [13], in test [14], in [15] and in test [16] was > 100 µM (inactive) each time. In addition, in [17], the GI50 is > 100 µM (inactive).

Regarding `Cc1cc(N(CCOS(C)(=O)=O)CCOS(C)(=O)=O)ccc1/C=N/c1ccc(-c2csc(-c3ccc(Br)cc3)n2)cc1`, the GI50 is 24.7 µM (inactive) in test [1]; 6.58 µM (inactive) in test [2]; 27.5 µM (inactive) in test [3]; 19.5 µM (inactive) in [4]; 18.9 µM (inactive) in test [5]; 19.4 µM (inactive) in [6]. Further, the GI50 in [7] was 3.66 µM (inactive); in test [8], 1.78 µM (inactive); in test [18], 0.518 µM (active); in [9] it was 5.43 µM (inactive); in [10], 4.58 µM (inactive); in test [19], 31.2 µM (inactive). Besides, the GI50 in test [11] was 0.0483 µM (active); in [12] it was 15.2 µM (inactive); in test [13], 15.6 µM (inactive); in test [14] it was 15.5 µM (inactive); in test [15], 10.3 µM (inactive); in [16], 6.24 µM (inactive). For the same compound, in test [17], the GI50 was 9.95 µM (inactive).

As for `c1ccc([P+](c2ccccc2)(c2ccccc2)c2ccc([P+](c3ccccc3)(c3ccccc3)c3ccccc3)c3ccccc23)cc1`, the GI50 in test [1] was > 100 µM (inactive); in test [2], 49.2 µM (inactive); in test [3], 40 µM (inactive); in test [4], 70.6 µM (inactive); in test [5], 32 µM (inactive); in test [6], 65 µM (inactive). For the same compound, the GI50 is 86.5 µM (inactive) in [7]; > 100 µM (inactive) in [8]; > 100 µM (inactive) in test [18]; 94.8 µM (inactive) in test [9]; > 100 µM (inactive) in test [10]; > 100 µM (inactive) in test [19]. The GI50 in test [11] is 61.4 µM (inactive); in test [12] it was 35.7 µM (inactive); in test [13], > 100 µM (inactive); in test [14], > 100 µM (inactive); in [15] it was 46.3 µM (inactive); in test [17] it was > 100 µM (inactive).

`CC1(c2nc3cc(Cl)c(Cl)cc3[nH]2)CCC(C(=O)O)C(C)(C)O1` (centres undefined): the GI50 in [1], in test [2], in [3], in test [4], in test [5] and in [6] was > 100 µM (inactive) each time. Also, the GI50 in [7], in test [8], in test [18], in [9], in [10] and in [19] was > 100 µM (inactive) each time. Besides, the GI50 in test [12], in test [13], in test [14], in test [15], in [16] and in [17] was > 100 µM (inactive) in each case.

On to `CN(C(=O)CCC(=O)O)c1ccccc1C(=O)O`, for which the GI50 in test [1] was > 100 µM (inactive); in [2] it was > 100 µM (inactive); in [3], > 100 µM (inactive); in test [4], > 100 µM (inactive); in test [5], 40.4 µM (inactive); in test [6], > 100 µM (inactive). For the same compound, the GI50 in [7], in test [8], in [18], in test [9], in test [19] and in [11] was > 100 µM (inactive) in each case. Moreover, the GI50 in [12], in test [13], in test [14], in [15], in test [16] and in test [17] was > 100 µM (inactive) each time.

As to `CSc1ccc(-c2cc(-c3nc4ccccc4[nH]3)nc(N)c2C#N)cc1`, the GI50 in test [1] is 16.9 µM (inactive); in test [2] it was 17.1 µM (inactive); in test [3] it was 17.9 µM (inactive); in test [4], 20.7 µM (inactive); in [5], 18.5 µM (inactive); in [6] it was 25.2 µM (inactive). Besides, the GI50 in [7] is 12.3 µM (inactive); in [8] it was 2.58 µM (inactive); in [18], 19.9 µM (inactive); in [9], 8.67 µM (inactive); in test [10], 19.1 µM (inactive); in test [19] it was 20.2 µM (inactive). Moreover, the GI50 was 22 µM (inactive) in test [11]; 31.3 µM (inactive) in test [13]; 17.1 µM (inactive) in test [14]; 16.5 µM (inactive) in test [15]; 20.1 µM (inactive) in test [16]; 17.3 µM (inactive) in test [17].

In the case of `Cc1cc(C)c2c(=O)n(CN3CCC(O)(c4ccccc4)CC3)sc2n1`, the GI50 in [1] is > 100 µM (inactive); in [2] it was 27.4 µM (inactive); in test [3], 39.9 µM (inactive); in test [4], 60.1 µM (inactive); in test [6], > 100 µM (inactive); in [7] it was 50.9 µM (inactive). In addition, the GI50 in [8] is 19.8 µM (inactive); in test [18] it was 19.4 µM (inactive); in test [9], > 100 µM (inactive); in test [10] it was 34.7 µM (inactive); in [19], 56.2 µM (inactive); in [11] it was 29 µM (inactive). In addition, the GI50 is 77.8 µM (inactive) in test [12]; 26.8 µM (inactive) in test [13]; 73.1 µM (inactive) in test [14]; 38.4 µM (inactive) in test [15]; 25 µM (inactive) in [16]; 31.1 µM (inactive) in [17].

Take `O=C(Nc1cccc(NC(=O)C(=O)C2CCC3=C(Sc4ccccc4N3)C2=O)n1)C(=O)C1CCC2=C(Sc3ccccc3N2)C1=O` (centres undefined): the GI50 in test [1] was > 100 µM (inactive); in [2], 29.8 µM (inactive); in test [3], 40.6 µM (inactive); in test [4] it was 27.4 µM (inactive); in test [5], > 100 µM (inactive); in [6], 73.6 µM (inactive). Also, the GI50 in [7] was 96.4 µM (inactive); in test [8] it was > 100 µM (inactive); in test [18] it was 76.6 µM (inactive); in test [9], 32.9 µM (inactive); in test [19], > 100 µM (inactive); in test [11] it was 65.9 µM (inactive). Further, the GI50 was 45.1 µM (inactive) in test [12]; 40.7 µM (inactive) in [13]; > 100 µM (inactive) in [14]; > 100 µM (inactive) in test [15]; 85.1 µM (inactive) in [16]; 44.8 µM (inactive) in test [17].

With `CN(C)CCCNC(=O)c1cc(NC(=O)c2cc(NC(=O)c3cc(NC(=O)CCCn4ccc(CO)c4CO)cn3C)cn2C)cn1C`, the GI50 is 25.6 µM (inactive) in test [1]; 63.5 µM (inactive) in [2]; 3.86 µM (inactive) in test [3]; 12.2 µM (inactive) in test [4]; 2.9 µM (inactive) in test [6]; 3.48 µM (inactive) in test [7]. Also, the GI50 in test [8] was 1.85 µM (inactive); in [18], 15.8 µM (inactive); in test [9] it was 3.2 µM (inactive); in [19], 11.4 µM (inactive); in test [11], 12.5 µM (inactive); in [12] it was 2.77 µM (inactive). For the same compound, the GI50 is 20.6 µM (inactive) in test [13]; 27.7 µM (inactive) in test [14]; 10.9 µM (inactive) in [15]; 72.4 µM (inactive) in [16]; 3.83 µM (inactive) in test [17].
